The supplement of paper PMC10307832

Key:
Assay in all cases: relative viability (nuclei count vs DMSO), 5 days (fraction); higher = more cells survive
COR-L23 = system: COR-L23
Procedure, shortened: (§1)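 Lung cancer cell lines in 1536-well plates were dosed by pin tool the day after seeding, either with one drug alone or with a fixed anchor-drug dose plus five library-drug doses (not always all listed) in √10 steps. After 5 days, cells were fixed and their nuclei stained in one step (final 0.05% Triton X-100, 1% formaldehyde, 1 ug/ml Hoechst), then counted on 4× images. Relative viability is the nuclei count in treated wells divided by that in vehicle wells. Values are medians of duplicate plates.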

NCI-H1651 = system: NCI-H1651
Procedure, shortened: as §1

ChaGo-K-1 = system: ChaGo-K-1
Procedure, shortened: as §1

IA-LM = system: IA-LM
Procedure, shortened: as §1

NCI-H1437 = system: NCI-H1437
Procedure, shortened: as §1

EBC-1 = system: EBC-1
Procedure, shortened: as §1

NCI-H1703 = system: NCI-H1703
Procedure, shortened: as §1

SW 1573 = system: SW 1573
Procedure, shortened: as §1

SK-MES-1 = system: SK-MES-1
Procedure, shortened: as §1

A549 = system: A549
Procedure, shortened: as §1

Calu-6 = system: Calu-6
Procedure, shortened: as §1

NCI-H1299 = system: NCI-H1299
Procedure, shortened: as §1

ABC-1 = system: ABC-1
Procedure, shortened: as §1

## O=c1cc(-c2cccc3c2Sc2ccccc2S3)oc(N2CCOCC2)c1 + CC1(C)CCC(c2ccc(Cl)cc2)=C(CN2CCN(c3ccc(C(=O)NS(=O)(=O)c4ccc(N[C@H](CCN5CCOCC5)CSc5ccccc5)c(S(=O)(=O)C(F)(F)F)c4)cc3)CC2)C1 [Navitoclax] (partner 0.5 µM)
COR-L23; first compound 0.08 µM
  relative viability: 1.26
COR-L23; first compound 0.253 µM
  relative viability: 1.4
COR-L23; first compound 0.8 µM
  relative viability: 1.07
COR-L23; first compound 2.53 µM
  relative viability: 1.2
COR-L23; first compound 8 µM
  relative viability: 1.47
NCI-H1651; first compound 0.08 µM
  relative viability: 1.04
NCI-H1651; first compound 0.253 µM
  relative viability: 1.42
NCI-H1651; first compound 0.8 µM
  relative viability: 0.852
NCI-H1651; first compound 2.53 µM
  relative viability: 0.994
NCI-H1651; first compound 8 µM
  relative viability: 1.14
ChaGo-K-1; first compound 0.08 µM
  relative viability: 0.903
ChaGo-K-1; first compound 0.253 µM
  relative viability: 1.04
ChaGo-K-1; first compound 0.8 µM
  relative viability: 1.12
ChaGo-K-1; first compound 8 µM
  relative viability: 1.25
IA-LM; first compound 0.08 µM
  relative viability: 0.847
IA-LM; first compound 0.253 µM
  relative viability: 1.06
IA-LM; first compound 0.8 µM
  relative viability: 0.815
IA-LM; first compound 2.53 µM
  relative viability: 0.856
IA-LM; first compound 8 µM
  relative viability: 0.963
NCI-H1437; first compound 0.08 µM
  relative viability: 1.08
NCI-H1437; first compound 0.253 µM
  relative viability: 1.58
NCI-H1437; first compound 0.8 µM
  relative viability: 1.09
NCI-H1437; first compound 2.53 µM
  relative viability: 1.11
NCI-H1437; first compound 8 µM
  relative viability: 1.39
EBC-1; first compound 0.08 µM
  relative viability: 0.401
EBC-1; first compound 0.253 µM
  relative viability: 0.376
EBC-1; first compound 0.8 µM
  relative viability: 0.401
EBC-1; first compound 2.53 µM
  relative viability: 0.362
EBC-1; first compound 8 µM
  relative viability: 0.335
NCI-H1703; first compound 0.253 µM
  relative viability: 1.22
NCI-H1703; first compound 0.8 µM
  relative viability: 1.35
NCI-H1703; first compound 2.53 µM
  relative viability: 1.05
NCI-H1703; first compound 8 µM
  relative viability: 1.05
SW 1573; first compound 0.08 µM
  relative viability: 0.999
SW 1573; first compound 0.253 µM
  relative viability: 1.14
SW 1573; first compound 0.8 µM
  relative viability: 1.04
SW 1573; first compound 2.53 µM
  relative viability: 1.12
SW 1573; first compound 8 µM
  relative viability: 1.17
SK-MES-1; first compound 0.08 µM
  relative viability: 1.1
SK-MES-1; first compound 0.253 µM
  relative viability: 1.54
SK-MES-1; first compound 0.8 µM
  relative viability: 1.2
SK-MES-1; first compound 2.53 µM
  relative viability: 1.17
SK-MES-1; first compound 8 µM
  relative viability: 1.24
A549; first compound 0.08 µM
  relative viability: 1.14
A549; first compound 0.253 µM
  relative viability: 1.51
A549; first compound 0.8 µM
  relative viability: 1.47
A549; first compound 2.53 µM
  relative viability: 1.13
A549; first compound 8 µM
  relative viability: 1.37
Calu-6; first compound 0.08 µM
  relative viability: 0.818
Calu-6; first compound 0.253 µM
  relative viability: 0.765
Calu-6; first compound 0.8 µM
  relative viability: 0.968
Calu-6; first compound 2.53 µM
  relative viability: 0.725
Calu-6; first compound 8 µM
  relative viability: 0.858
NCI-H1299; first compound 0.08 µM
  relative viability: 1.08
NCI-H1299; first compound 0.253 µM
  relative viability: 1.08
NCI-H1299; first compound 0.8 µM
  relative viability: 1.04
NCI-H1299; first compound 2.53 µM
  relative viability: 1.04
NCI-H1299; first compound 8 µM
  relative viability: 1.04

## CCN(CC)CCCCNc1ncc2cc(-c3cc(OC)cc(OC)c3)c(NC(=O)NC(C)(C)C)nc2n1 + CC(C)C[C@H](NC(=O)[C@H](Cc1ccccc1)NC(=O)c1cnccn1)B(O)O [Bortezomib] (partner 0.002 µM)
COR-L23; first compound 0.01 µM
  relative viability: 1.19
COR-L23; first compound 0.03162 µM
  relative viability: 1.3
COR-L23; first compound 0.1 µM
  relative viability: 1.13
COR-L23; first compound 0.3162 µM
  relative viability: 1.13
COR-L23; first compound 1 µM
  relative viability: 1.01
NCI-H1651; first compound 0.01 µM
  relative viability: 1
NCI-H1651; first compound 0.03162 µM
  relative viability: 0.94
NCI-H1651; first compound 0.1 µM
  relative viability: 1.06
NCI-H1651; first compound 0.3162 µM
  relative viability: 1.03
NCI-H1651; first compound 1 µM
  relative viability: 0.902
ChaGo-K-1; first compound 0.01 µM
  relative viability: 1.08
ChaGo-K-1; first compound 0.03162 µM
  relative viability: 1.14
ChaGo-K-1; first compound 0.1 µM
  relative viability: 1.28
ChaGo-K-1; first compound 0.3162 µM
  relative viability: 1.27
ChaGo-K-1; first compound 1 µM
  relative viability: 0.742
IA-LM; first compound 0.01 µM
  relative viability: 0.868
IA-LM; first compound 0.03162 µM
  relative viability: 0.795
IA-LM; first compound 0.1 µM
  relative viability: 0.977
IA-LM; first compound 0.3162 µM
  relative viability: 0.557
IA-LM; first compound 1 µM
  relative viability: 0.776
NCI-H1437; first compound 0.01 µM
  relative viability: 0.536
NCI-H1437; first compound 0.03162 µM
  relative viability: 0.533
NCI-H1437; first compound 0.1 µM
  relative viability: 0.593
NCI-H1437; first compound 0.3162 µM
  relative viability: 0.554
NCI-H1437; first compound 1 µM
  relative viability: 0.472
EBC-1; first compound 0.01 µM
  relative viability: 0.554
EBC-1; first compound 0.03162 µM
  relative viability: 0.599
EBC-1; first compound 0.1 µM
  relative viability: 0.634
EBC-1; first compound 0.3162 µM
  relative viability: 0.565
EBC-1; first compound 1 µM
  relative viability: 0.458
NCI-H1703; first compound 0.01 µM
  relative viability: 0.343
NCI-H1703; first compound 0.1 µM
  relative viability: 0.364
NCI-H1703; first compound 0.3162 µM
  relative viability: 0.215
NCI-H1703; first compound 1 µM
  relative viability: 0.236
ABC-1; first compound 0.01 µM
  relative viability: 0.325
ABC-1; first compound 0.03162 µM
  relative viability: 0.343
ABC-1; first compound 0.1 µM
  relative viability: 0.342
ABC-1; first compound 0.3162 µM
  relative viability: 0.247
ABC-1; first compound 1 µM
  relative viability: 0.327
SW 1573; first compound 0.01 µM
  relative viability: 1.03
SW 1573; first compound 0.03162 µM
  relative viability: 0.991
SW 1573; first compound 0.1 µM
  relative viability: 1.07
SW 1573; first compound 0.3162 µM
  relative viability: 1.03
SW 1573; first compound 1 µM
  relative viability: 0.936
Calu-6; first compound 0.01 µM
  relative viability: 1.01
Calu-6; first compound 0.03162 µM
  relative viability: 1.11
Calu-6; first compound 0.1 µM
  relative viability: 1.08
Calu-6; first compound 0.3162 µM
  relative viability: 1.11
Calu-6; first compound 1 µM
  relative viability: 0.996
NCI-H1299; first compound 0.01 µM
  relative viability: 1.11
NCI-H1299; first compound 0.03162 µM
  relative viability: 1.02
NCI-H1299; first compound 0.1 µM
  relative viability: 1.03
NCI-H1299; first compound 0.3162 µM
  relative viability: 0.979
NCI-H1299; first compound 1 µM
  relative viability: 0.954
